Experimental data published in publication PMC9737772, “Synthesis and Anti-Inflammatory Activity of 1-Methylhydantoin Cinnamoyl Imides” (Molecules, 2022).
Entries after “also recorded” stand apart in the source; their conditions may differ.

Experiments:
[1] = tested on: NO release from RAW264.7 cells induced by LPS; experiment: NO content in supernatant of LPS-induced RAW264.7 cells (Griess); format: cell-based, mouse; settings: for inhibition of NO production: 80 μM, LPS 1 ug/mL, 24 h, RAW264.7; for inhibition of NO release: LPS-stimulated RAW264.7, concentration not stated
Protocol: NO is an important indicator to predict the anti-inflammatory effects of drugs. It has been identified as a proinflammatory cytokine in various inflammatory diseases. NO can induce vasodilation, recruit neutrophils and […] the activation of mast cells, leading to tissue damage. It is essential to reduce the production of NO for inflammatory release. To explore the anti-inflammatory effects of the five compounds, the LPS-induced inflammatory response of RAW264.7 cells was carried out. The NO content in the cell supernatant was measured by the Griess method to evaluate the inhibitory effects of these five compounds on NO production.
(§1) RAW264.7 mouse macrophages were purchased from Zhongqiao Xinzhou and cultured in DMEM supplemented with 10% fetal bovine serum (FBS) and 1% penicillin/streptomycin in a 37 °C, 5% CO2 incubator. The cells were passaged every two days to maintain the monolayer cell state.
(§2) The RAW264.7 cells in the logarithmic growth phase were seeded in a 24-well plate and placed in a 37 °C, 5% CO2 constant temperature incubator for culture. After 24 h, the culture medium was discarded. The blank group was added with 10% FBS DMEM 1 mL. The group was added with a medium containing 1 ug/mL LPS, and the experimental group was added with LPS and different concentrations of the target compound to make the final volume 1 mL. After 24 h of culture, the cell supernatant was taken and stored in a refrigerator at −20 °C for later use. The Griess kit was used to determine the concentration of NO in the supernatant, and a double antibody sandwich ELISA kit was used to detect TNF-α and IL-1β.

[2] = target: T1, ovine cyclooxygenase-1 (COX-1) (Ovis aries, UniProt P05979); experiment: In vitro COX inhibition assay (enzyme immunoassay kit), COX-1; format: biochemical; settings: ovine COX-1, enzyme immunoassay kit
T1 construct: purchased Cayman Chemical 560131
T1 sequence (P05979 25-600): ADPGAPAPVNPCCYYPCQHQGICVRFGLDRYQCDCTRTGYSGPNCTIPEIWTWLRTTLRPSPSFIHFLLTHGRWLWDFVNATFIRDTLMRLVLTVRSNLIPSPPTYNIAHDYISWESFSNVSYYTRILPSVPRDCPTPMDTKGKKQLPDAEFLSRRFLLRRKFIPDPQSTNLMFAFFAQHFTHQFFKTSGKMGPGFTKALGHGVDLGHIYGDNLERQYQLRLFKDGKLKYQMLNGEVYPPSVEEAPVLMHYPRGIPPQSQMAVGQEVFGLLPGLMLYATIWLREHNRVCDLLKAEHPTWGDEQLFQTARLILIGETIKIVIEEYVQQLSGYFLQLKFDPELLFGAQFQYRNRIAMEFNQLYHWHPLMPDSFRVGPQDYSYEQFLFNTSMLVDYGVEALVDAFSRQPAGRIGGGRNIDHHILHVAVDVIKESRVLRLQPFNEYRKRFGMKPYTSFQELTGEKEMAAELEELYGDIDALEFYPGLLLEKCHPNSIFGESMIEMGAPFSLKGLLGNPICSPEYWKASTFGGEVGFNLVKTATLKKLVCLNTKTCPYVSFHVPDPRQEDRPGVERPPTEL
Protocol: (§3) The inhibition ability of 1-methylhydantoin cinnamic imides to ovine cyclooxygenase-1 (COX-1) and cyclooxygenase-2 (COX-2) was determined using an enzyme immunoassay kit. […] The Cell Counting Kit-8 (CCK-8) method was used to detect the cytotoxicity of the five target compounds (1–5) on lipopolysaccharide (LPS)-induced RAW264.7 cells. When the concentrations of compounds 1, 3 and 5 are lower than 20 μM, and when the concentrations of compounds 2 and 4 are lower than 80 μM, the survival rate of RAW264.7 cells is more than 95%, which has no obvious damage to cell survival and can be used for subsequent in vitro anti-inflammatory activity experiments to provide the basis.
(§4) The inhibition ability of ovine COX-1 and COX-2 was determined using an enzyme immunoassay kit (560131, Cayman Chemical, Ann Arbor, MI, USA) following the manufacturer’s instructions.

[3] = tested on: TNF-α secretion in RAW264.7 cells induced by LPS; experiment: TNF-α content in supernatant of LPS-induced RAW264.7 cells (ELISA); format: cell-based, mouse
Protocol: Tumor necrosis factor-α (TNF-α) is a pleiotropic proinflammatory cytokine, known for its proinflammatory activity. To explore the inhibitory effects of five compounds on TNF-α, ELISA was used to determine the content of inflammatory factor TNF-α in the supernatant of RAW264.7 cells stimulated by LPS. RAW264.7 cells secreted a large amount of inflammatory-factor TNF-α 24 h after LPS (1 ug/mL) induction.
as §1, §2

[4] = target: T2, ovine cyclooxygenase-2 (COX-2); experiment: In vitro COX inhibition assay (enzyme immunoassay kit), COX-2; format: biochemical; settings: ovine COX-2, enzyme immunoassay kit
T2 construct: purchased Cayman Chemical 560131
Protocol: as §3, §4

[5] = Cytotoxicity determination by CCK-8; format: cell-based; settings: mouse, RAW264.7 macrophage cells, RAW264.7 cells
Protocol: as §1
The CCK-8 kit was used to determine the cytotoxicity of the target compounds (1–5) to RAW264.7 cells. The well-growing cells were subcultured in a 96-well plate. After the cells adhered to the wall, the experimental group was added with a medium containing different concentrations of compounds to make the final concentration reach 5, 10, 20, 40, 80, 160 and 320 μmoL/L. The control group was added with a medium without compound, and a blank group without cells or compound was set at the same time. After culturing in a constant temperature incubator for a period, CCK-8 solution was added to produce yellow formazan product. The OD value was measured by the microplate reader at the detection wavelength of 450 nm, and the cell survival rate was calculated. The cell survival rate formula is as follows:(1) Cell Survival Rate %=ODe−ODb/ODc−ODb×100% where ODe was the OD value of the experimental group, ODb was the OD value of the blank group, and ODc was the OD value of the control group.

[6] = tested on: IL-1β secretion in RAW264.7 cells induced by LPS; experiment: IL-1β content in supernatant of LPS-induced RAW264.7 cells (ELISA); format: cell-based, mouse
Source text: Interleukin-1β (IL-1β) has strong proinflammatory activity and can induce the production of a variety of proinflammatory mediators, such as cytokines and chemokines. In this work, the ELISA method was used to determine the IL-1β content in the supernatant of RAW264.7 cells stimulated by LPS to evaluate the effects of five compounds on IL-1β secretion.
as §1, §2

[7] = 80 μM, LPS 1 ug/mL, 24 h, RAW264.7, vs model group
[8] = LPS-stimulated RAW264.7, concentration not stated
[9] = 80 μM, LPS, 24 h, RAW264.7, vs model group

T2 sequence (P35354 18-604): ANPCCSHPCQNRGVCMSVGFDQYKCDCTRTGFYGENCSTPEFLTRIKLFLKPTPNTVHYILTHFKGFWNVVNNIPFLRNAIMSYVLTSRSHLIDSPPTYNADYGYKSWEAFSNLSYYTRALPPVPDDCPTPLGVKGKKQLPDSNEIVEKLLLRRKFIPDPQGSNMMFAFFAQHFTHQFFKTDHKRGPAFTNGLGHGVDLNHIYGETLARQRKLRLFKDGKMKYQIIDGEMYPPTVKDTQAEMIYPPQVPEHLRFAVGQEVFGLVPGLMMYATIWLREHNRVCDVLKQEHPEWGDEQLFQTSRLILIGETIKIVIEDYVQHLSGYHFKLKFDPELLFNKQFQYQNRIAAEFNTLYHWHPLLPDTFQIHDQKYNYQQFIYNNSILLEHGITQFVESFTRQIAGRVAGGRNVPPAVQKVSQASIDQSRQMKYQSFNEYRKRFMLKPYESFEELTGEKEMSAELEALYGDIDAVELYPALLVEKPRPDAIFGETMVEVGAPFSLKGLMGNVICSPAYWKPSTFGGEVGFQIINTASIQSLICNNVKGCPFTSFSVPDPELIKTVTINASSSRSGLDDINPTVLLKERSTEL

melting point [°C]	IC50 [2] [µM]	IC50 [4] [µM]	Compound	inhibition of NO production [1]	inhibition of NO release [1]	inhibition of TNF-α secretion [3, 7]	inhibition of TNF-α secretion [3, 8]	CC50 [5] [µM]	inhibition of IL-1β secretion [6, 9]	inhibition of IL-1β secretion [6, 8]	inhibition of TNF-α secretion ([3]; 20 μM, LPS 1 ug/mL, 24 h, RAW264.7, vs model group)	inhibition of IL-1β secretion ([6]; 20 μM, LPS, 24 h, RAW264.7, vs model group)
148.9 to 149.6	37 ± 4	126 ± 12	CC(=O)Oc1ccc(/C=C/C(=O)N2C(=O)CN(C)C2=O)cc1 [Compound 4, (E)-4-(3-(3-methyl-2,5-dioxoimidazolidin-1-yl)-3-oxoprop-1-en-1-yl)phenyl acetate]	showed a significant effect on NO	significantly inhibit the release of NO; also recorded: reduced the release of NO	significantly reduce the secretion of TNF-α; also recorded: most significant	reduce the secretion of TNF-α; also recorded: significantly inhibited the secretion of inflammatory factors TNF-α	302	significant inhibitory effect on the secretion of IL-1β	reduce the secretion of TNF-α and IL-1β; also recorded: significantly inhibited the secretion of inflammatory factors TNF-α and IL-1β	–	–
128.9 to 129.8	56 ± 6	204 ± 10	CN1CC(=O)N(C(=O)/C=C/c2ccco2)C1=O [Compound 2, (E)-3-(3-(furan-2-yl)acryloyl)-1-methylimidazolidine-2,4-dione]	showed a significant effect on NO	significantly inhibit the release of NO	significantly reduce the secretion of TNF-α	reduce the secretion of TNF-α	329	significant inhibitory effect on the secretion of IL-1β	reduce the secretion of TNF-α and IL-1β	no obvious inhibitory effect on TNF-α	no obvious inhibitory effect on IL-1β
